Here are results for eleven compounds from patent US20060115815A1 (priority 2002, published 2006).

The target of one series is T1, GS-7340 Ester Hydrolase (Homo sapiens, UniProt P10619).
T1 construct: from tissue; host or cells: human peripheral blood mononuclear cells (extract and column pools)
Description: biochemical.

The test system of series [1] is 48V54V82A. Briefly: microbe, parasite or virus in culture. As to conditions: Human immunodeficiency virus 1, read-out: Cell-based assay (MT-4) EC50 48V54V82A. Format: cell-based, HIV-1.
Series [2] has as its system 46I50V. Description: microbe, parasite or virus in culture. The class given is cell-based, HIV-1. Particulars: Human immunodeficiency virus 1, read-out: Cell-based assay (MT-4) EC50 46I50V.
The subject of a further series is WT. Description: microbe, parasite or virus in culture. As to conditions: Human immunodeficiency virus 1, read-out: Cell-based assay (MT-4) EC50 WT. Format: cell-based, HIV-1.
Series [3] has as its system 48V54V82S. Briefly: microbe, parasite or virus in culture. Details: species or system HIV-1. As to conditions: Human immunodeficiency virus 1, read-out: Cell-based assay (MT-4) EC50 48V54V82S.
The target in series [4] is T2, 84V90M (Human immunodeficiency virus type 1 group M subtype B, UniProt P04585, I572V/L578M). Description: cell-based. Details: species or system HIV-1.
The target in series [5] is T2, 84V90M. Description: biochemical. Details: species or system HIV-1.
Series [6] has as its system 30N82I88D. Briefly: microbe, parasite or virus in culture. The class given is cell-based, HIV-1. As to conditions: Human immunodeficiency virus 1, read-out: Cell-based assay (MT-4) EC50 30N82I88D.
Series [7] has as its system 48V82A90M. Briefly: microbe, parasite or virus in culture. Particulars: Human immunodeficiency virus 1, read-out: Cell-based assay (MT-4) EC50 48V82A90M. Details: species or system HIV-1.
Series [8] relates to recombinant HIV-1 strains with resistance mutations in the protease gene. Briefly: Cross-resistance profile assay, whole panel of mutant viruses. The class given is cell-based.
For series [9], the system named is PBMC in intact human whole blood.
In series [10] the test system is recombinant HIV-1 strain, protease 46I/47V/50V.
A further series has as its system WT HIV-1. Briefly: microbe, parasite or virus in culture. The class given is cell-based.
Series [11] deals with recombinant HIV-1 strain, protease 46I/84A.
Series [12] deals with recombinant HIV-1 strain, protease 10R/46I/82T/84V.
In series [13] the test system is recombinant HIV-1 strain, protease 10F/46I/71V/82T/90M.
The test system of series [14] is recombinant HIV-1 strain, protease 48V/54V/71V/82S.
Series [15] concerns recombinant HIV-1 strain, protease 10I/48V/71V/82A/90M.
The test system of series [16] is recombinant HIV-1 strain, protease 10I/84V/71V/73S/90M.
Series [17] concerns 30N82I88D. Details: species or system HIV-1. As to conditions: MT-4, 30N82I88D; read-out: Cell-based assay (MT-4) EC50/nM 30N82I88D.
The test system of series [18] is 48V82A90M. Details: species or system HIV-1. Particulars: MT-4, 48V82A90M; read-out: Cell-based assay (MT-4) EC50/nM 48V82A90M.
Series [19] deals with T2, 84V90M. Briefly: Enzymatic assay, IC50 against 84V90M mutant protease. The class given is biochemical, HIV-1.
Series [20] has as its system 48V54V82S. Details: species or system HIV-1. As to conditions: MT-4, 48V54V82S; read-out: Cell-based assay (MT-4) EC50/nM 48V54V82S.
Series [21] has as its system 48V54V82A. Details: species or system HIV-1. Particulars: MT-4, 48V54V82A; read-out: Cell-based assay (MT-4) EC50/nM 48V54V82A.
The subject of series [22] is mutant HIV-1 with I84V/L90M mutations in the protease gene. The class given is cell-based. As to conditions: for EC50: MT-4, 84V90M, read-out: Cell-based assay (MT-4) EC50/nM 84V90M.
The test system of series [23] is 46I50V. Details: species or system HIV-1. Particulars: MT-4, 46I50V; read-out: Cell-based assay (MT-4) EC50/nM 46I50V.
In series [24] the target is recombinant HIV-1 protease (Human immunodeficiency virus type 1 group M subtype B, UniProt P04585). Briefly: biochemical. Format: biochemical. Particulars: for IC50: read-out: Enzymatic assay WT IC50/nM.
The test system of series [25] is recombinant HIV-1 strain, protease 10I/48V/54V/82A.
Series [26] relates to recombinant HIV-1 strain, protease 54V/71V/82S.
Series [27] concerns recombinant HIV-1 strain, protease 30N/50S/82I/88D.
A further series in a line: in vitro. Particulars: human.
The mark [28] stands for this setting: Human immunodeficiency virus 1, read-out: EC50 [nM] WT HIV-1.
[29] abbreviates: MT-4, WT, read-out: Cell-based assay (MT-4) EC50/nM WT.

SMILES strings stand for the structures. Like-named read-outs stand apart in the source and are kept apart here.

The term Ki denotes a dissociation constant, usually derived from enzyme kinetics or from competition with a known ligand.

T1 sequence (P10619 29-326 limits assumed): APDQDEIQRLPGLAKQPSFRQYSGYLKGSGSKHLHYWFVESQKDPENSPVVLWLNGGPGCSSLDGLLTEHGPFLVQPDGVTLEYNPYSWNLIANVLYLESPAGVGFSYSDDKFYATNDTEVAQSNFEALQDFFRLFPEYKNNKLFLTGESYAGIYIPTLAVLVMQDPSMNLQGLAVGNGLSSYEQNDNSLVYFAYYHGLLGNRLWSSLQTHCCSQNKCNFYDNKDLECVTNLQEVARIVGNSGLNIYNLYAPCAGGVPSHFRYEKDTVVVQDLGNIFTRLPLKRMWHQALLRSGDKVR
T1 sequence (P10619 327-480 limits assumed): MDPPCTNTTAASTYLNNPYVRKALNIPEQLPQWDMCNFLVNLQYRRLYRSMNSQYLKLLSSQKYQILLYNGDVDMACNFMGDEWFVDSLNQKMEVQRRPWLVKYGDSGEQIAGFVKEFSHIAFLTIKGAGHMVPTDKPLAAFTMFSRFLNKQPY

Compound `O=c1oc(Cl)c(Cl)c2ccccc12` [3,4-DCI, 3,4 dichloroisocoumarin, reference compound] gave an IC50 at GS-7340 Ester Hydrolase of 4000 nM.

`CCCCN1C(=O)N(Cc2ccc3[nH]nc(N)c3c2)C(Cc2ccccc2)C(O)C(O)C1Cc1ccccc1` (centres unmarked) [CH3 (DMP-851)]: the EC50 amounted to 33 nM in the series with 48V54V82A [1]; 17 nM with 46I50V [2]; 54 nM in the series with WT; 30 nM with 48V54V82S [3]; 918 nM on 84V90M [4]; 69 nM with 30N82I88D [6]. For the same compound, in the series on 48V82A90M [7], the EC50 is 22 nM. This compound also had an IC50 against 84V90M [5] of 9.4 nM.

For the compound `CCCCOC(=O)C(C)NP(=O)(COc1ccc(CC(NC(=O)OC2COC3OCCC23)C(O)CN(CC(C)C)S(=O)(=O)c2ccc(OC)cc2)cc1)NC(C)C(=O)OCCCC` (centres unmarked) [GS-16503], the “Metabolism (conversion to acid metabolites), increase at 1 μM vs. 10 μM” value in the series with MT-2 cells amounted to 3 fold. The “Total No. of Resistant Viruses” value in [8] (of 11 mutant viruses, resistance = 5-fold and higher change in EC50 relative to wild-type) was found to be 0. In [9], the “Intracellular Acid Metabolite Concentration” value is 279 ± 47 µM; the “Intracellular Prodrug Concentration” value was determined as 61 ± 40 µM; the “Intracellular Prodrug and Metabolites Concentration, uM: Acid Metabolite” value was 279 ± 47 µM; the “Intracellular Prodrug and Metabolites Concentration: Prodrug” value amounted to 61 ± 40 µM. Further, the “Intracellular Prodrug and Metabolites Concentration: Total” value in series [9] was determined as 340 ± 35 µM. The “Cell-Associated PI, pmol/mln cells: Prodrug” value with Quiescent PBMC was determined as 0 pmol/mln cells.

As for `CCOC(=O)C(C)OP(=O)(COc1ccc(C[C@H](NC(=O)O[C@H]2CO[C@H]3OCC[C@H]32)[C@H](O)CN(CC(C)C)S(=O)(=O)c2ccc(OC)cc2)cc1)Oc1ccccc1` (some centres unmarked) [GS-17394], the “Metabolism (conversion to acid metabolites), increase at 1 μM vs. 10 μM” value with MT-2 cells is “independent”. Moreover, in series [9], the “Intracellular Acid Metabolite Concentration” value was determined as 629 ± 303 µM; the “Intracellular Prodrug Concentration” value worked out at 69 ± 85 µM; the “Intracellular Prodrug and Metabolites Concentration, uM: Acid Metabolite” value was found to be 629 ± 303 µM; the “Intracellular Prodrug and Metabolites Concentration: Prodrug” value is 69 ± 85 µM. Also, the “Intracellular Prodrug and Metabolites Concentration: Total” value in series [9] worked out at 698 ± 301 µM. Besides, the “Cell-Associated PI, pmol/mln cells: Prodrug” value in the series with Quiescent PBMC came out at 0 pmol/mln cells.

For the compound `Cc1cccc(C)c1OCC(=O)N[C@@H](Cc1ccccc1)[C@@H](O)C[C@H](Cc1ccccc1)NC(=O)[C@H](C(C)C)N1CCCNC1=O` [Lopinavir], the “Fold Change in EC50 Relative to WT HIV-1” value in [10] worked out at 19; in [11], 9; in [12], 11; in [13], 7.5; in series [14], 60; in [15], 4.5. For the same compound, the “Fold Change in EC50 Relative to WT HIV-1” value in series [16] was determined as 11. Further, the “Total No. of Resistant Viruses” value in series [8] ({}) is on record as 6. Further, in the series on WT HIV-1 (setting [28]), the EC50 came out at 8 nM.

On to `CCOP(=O)(COc1ccc(CC2C(O)C(O)C(Cc3ccc(OC)cc3)N(Cc3ccc(O)cc3)C(=O)N2Cc2ccc(O)cc2)cc1)OCC` (centres unmarked) [OCH3, Ph-pOH, OCH2PO3Et2], for which the EC50 was 106 nM in the series with 48V54V82S [3], 23 nM in the series with 30N82I88D [6] and 48 nM in the series with 48V82A90M [7].

`CCOP(=O)(COc1ccc(CC2C(O)C(O)C(Cc3ccc(OC)cc3)N(Cc3cccnc3)C(=O)N2Cc2cccnc2)cc1)OCC` (centres unmarked) [OCH3, m-pyridine, OCH2PO3Et2]: the EC50 in the series with 48V54V82A [1] is 1020 nM; with 46I50V [2], 352 nM; with 48V54V82S [3], 970 nM; at 84V90M [4], 765 nM; with 30N82I88D [6] it was 106 nM; in the series on 48V82A90M [7] it was 480 nM.

Take `CCOC(=O)C(C)NP(=O)(COc1ccc(C[C@@H]2[C@H](O)[C@@H](O)[C@@H](Cc3ccccc3)N(Cc3ccccc3)C(=O)N2Cc2ccccc2)cc1)Oc1ccccc1` (some centres unmarked) [R=H, R1=Ph, R2=Mono-Ala-Et]: the EC50 with 30N82I88D [17] turned out to be 238 nM; in the series on 48V82A90M [18], 2450 nM; with 48V54V82S [20] it was 1950 nM; in the series on 48V54V82A [21] it was 2850 nM; with WT HIV-1 (setting [29]), 310 nM; in [22] it was 2940 nM. Besides, in the series with 46I50V [23], the EC50 was found to be 1250 nM. Further, the IC50 on 84V90M [19] turned out to be 50 nM; in [24], 5 nM.

On to `CCOP(=O)(CNC(=O)Oc1ccc(C[C@@H]2[C@H](O)[C@@H](O)[C@@H](Cc3ccc(OC)cc3)N(Cc3cccc(N)c3)C(=O)N2Cc2cccc(N)c2)cc1)OCC` [R=OCH3, R1=Ph-mNH2, R2=OCONH(CH2)PO3Et2], for which the EC50 in the series with 30N82I88D [17] stood at 68 nM; in the series on 48V82A90M [18], 185 nM; in the series on 48V54V82S [20], 203 nM; in the series with 48V54V82A [21], 223 nM; in the series on WT HIV-1 (setting [29]), 58 nM; in series [22], 2150 nM. In addition, in the series with 46I50V [23], the EC50 is 104 nM. For the same compound, the results for the IC50 (against 84V90M [19]; in [24]) were 85 nM and 9.9 nM, respectively.

Take `CCC[C@@]1(CCc2ccccc2)CC(O)=C([C@H](CC)c2cccc(NS(=O)(=O)c3ccc(C(F)(F)F)cn3)c2)C(=O)O1` [Tipranavir]: the “Fold Change in EC50 Relative to WT HIV-1” value in series [10] is 0.5; in series [11], 1; in [12], 5; in series [13], 3; in [14], 2; in series [25], 0.4. Also, the entries for the “Fold Change in EC50 Relative to WT HIV-1” value in [15], in series [26] and in series [27] were 0.3, 3.5 and 0.5, respectively. Also, the “Total No. of Resistant Viruses” value in series [8] ({}) is listed as 1. The EC50 in the series with WT HIV-1 (setting [28]) was 80 nM. Also, in series [22] (fold difference in EC50, mutant vs. wild type), the I84V/L90M fold change result is “+ (>3 to ≦10)”.

For the compound `CCOC(=O)C(C)OP(=O)(COc1ccc(CC(NC(=O)OC2COC3OCCC23)C(O)CN(CC(C)C)S(=O)(=O)c2ccc(OC)cc2)cc1)Oc1ccccc1` (centres unmarked) [drawing 658 R1=OPh R2=Lac-Et], the Ki in series [24] (Ki (pM), class symbols, Table 10) lay within 10 to 100 pM. Also, the CC50 at 5 days in “in vitro” fell in the range of 5000 to 50000 nM.
